Measured values published in patent US20110053985A1, “NOVEL PIPERIDINE-4-CARBOXYLIC ACID PHENYL-ALKYL-AMIDE DERIVATIVES AND THEIR USE AS MONOAMINE NEUROTRANSMITTER RE-UPTAKE INHIBITORS” (NEUROSEARCH A/S, priority 2008, published 2011).
Structures can show the parent of a compound that is named as a salt.

Key:
[1] = target: T1, serotonine (5-HT) reuptake in synaptosomes (Rattus norvegicus, UniProt P31652); experiment: Inhibition of 5-HT reuptake in synaptosomes; assay type: biochemical; conditions: 3H-5-HT, read-out: 5-HT-uptake IC50
T1 construct: serotonine (5-HT) in synaptosomes as described in WO 97/16451; from tissue; host or cells: synaptosomes (brain tissue)
Description: (§1) Compounds of the invention may be tested for their ability to inhibit re-uptake of the monoamines dopamine, noradrenaline and serotonin in synaptosomes e.g. such as described in WO 97/30997 (NeuroSearch A/S) or WO 97/16451 (NeuroSearch NS). Based on the balanced activity observed in these tests the compound of the invention is considered useful for the treatment, prevention or alleviation of a disease or a disorder or a condition of a mammal, including a human, which disease, disorder or condition is responsive to inhibition of monoamine neurotransmitter re-uptake in the central nervous system.
(§2) Compounds were tested for their ability to inhibit the reuptake of the monoamine neurotransmitters dopamine (DA) noradrenaline (NA) and serotonine (5-HT) in synaptosomes as described in WO 97/16451 (NeuroSearch A/S).
(§3) The test values are given as IC50 (the concentration (μM) of the test substance which inhibits the specific binding of ^3H-DA, ^3H-NA, or ^3H-5-HT by 50%).

[2] = target: T2, dopamine (DA) reuptake in synaptosomes (Rattus norvegicus, UniProt P23977); experiment: Inhibition of DA reuptake in synaptosomes; assay type: biochemical; conditions: 3H-DA, read-out: DA-uptake IC50
T2 construct: in synaptosomes as described in WO 97/16451; from tissue; host or cells: synaptosomes (brain tissue)
Description: as §1, §2, §3

T2 sequence (P23977 whole entry): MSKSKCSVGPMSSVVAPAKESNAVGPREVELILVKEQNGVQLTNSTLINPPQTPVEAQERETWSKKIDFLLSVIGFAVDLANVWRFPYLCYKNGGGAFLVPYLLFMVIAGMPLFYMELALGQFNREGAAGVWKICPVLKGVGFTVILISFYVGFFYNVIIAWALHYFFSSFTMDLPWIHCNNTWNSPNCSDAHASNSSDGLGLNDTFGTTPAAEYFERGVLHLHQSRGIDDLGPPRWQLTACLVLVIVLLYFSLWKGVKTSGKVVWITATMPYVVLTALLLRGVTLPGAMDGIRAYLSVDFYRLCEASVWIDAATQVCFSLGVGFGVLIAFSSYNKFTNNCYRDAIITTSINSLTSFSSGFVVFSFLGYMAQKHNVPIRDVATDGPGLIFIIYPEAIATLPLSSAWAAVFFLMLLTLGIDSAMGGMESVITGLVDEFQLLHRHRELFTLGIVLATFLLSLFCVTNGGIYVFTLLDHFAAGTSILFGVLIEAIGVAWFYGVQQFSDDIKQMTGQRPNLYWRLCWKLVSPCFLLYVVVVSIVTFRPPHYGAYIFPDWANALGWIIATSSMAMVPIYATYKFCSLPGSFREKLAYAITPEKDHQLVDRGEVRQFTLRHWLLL
T1 sequence (P31652 whole entry): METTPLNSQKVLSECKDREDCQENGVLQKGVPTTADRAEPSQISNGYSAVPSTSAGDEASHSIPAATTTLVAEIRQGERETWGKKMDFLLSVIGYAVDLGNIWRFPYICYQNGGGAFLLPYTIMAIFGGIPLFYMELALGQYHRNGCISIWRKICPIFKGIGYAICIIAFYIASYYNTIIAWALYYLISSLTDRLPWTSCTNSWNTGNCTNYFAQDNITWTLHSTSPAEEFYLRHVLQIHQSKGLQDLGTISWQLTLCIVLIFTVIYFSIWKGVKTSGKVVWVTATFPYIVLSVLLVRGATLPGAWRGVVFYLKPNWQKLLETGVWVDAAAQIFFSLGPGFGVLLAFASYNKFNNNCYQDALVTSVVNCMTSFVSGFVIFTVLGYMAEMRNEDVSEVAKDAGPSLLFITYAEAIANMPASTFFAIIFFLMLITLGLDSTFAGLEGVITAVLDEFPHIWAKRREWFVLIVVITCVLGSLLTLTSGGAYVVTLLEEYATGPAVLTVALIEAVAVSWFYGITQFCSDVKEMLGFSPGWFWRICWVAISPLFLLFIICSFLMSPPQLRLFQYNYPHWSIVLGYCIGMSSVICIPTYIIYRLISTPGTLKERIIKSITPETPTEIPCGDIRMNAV

| IC50 [1] [µM] | IC50 [2] [µM] | melting point [°C] | SMILES |
| --- | --- | --- | --- |
| 0.37 | 0.021 | 159.3 to 160.7 | CCN(C(=O)C1CCNCC1)c1ccc(Cl)c(Cl)c1.O=C(O)C(F)(F)F [Compound C1, Piperidine-4-carboxylic acid (3,4-dichloro-phenyl)-ethyl-amide trifluoroacetic acid salt] |
| 0.14 | 0.0078 |  | CCN(C(=O)C1CCNCC1)c1ccc(Cl)c(Br)c1 [Compound C7, Piperidine-4-carboxylic acid (3-bromo-4-chloro-phenyl)-ethyl-amide hydrochloric acid salt] |
| 0.12 | 0.004 |  | CCN(C(=O)C1CCNCC1)c1ccc(Br)c(Br)c1 [Compound C13, Piperidine-4-carboxylic acid (3,4-dibromo-phenyl)-ethyl-amide hydrochloric acid salt] |
